Source: patent publication US20250019385A1, “SPIROCYCLIC ANNULATED 2-AMINO-3-CYANO THIOPHENES AND DERIVATIVES FOR THE TREATMENT OF CANCER” (Boehringer Ingelheim International GmbH, priority 2023, published 2025)
Like-named read-outs stand apart in the source and are kept apart here.

Legend:
LOVO cells = experiment: LOVO CTG proliferation assay (120 h) (CRC, G13D); assay type: cell-based
How it was run: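 Cells seeded at 1000/well in DMEM + 10% FCS, dosed next day with a logarithmic compound series, technical duplicates, for 120 h. Viability by CellTiter-Glo luminescence as percent of DMSO control; IC50 from four-parameter non-linear regression.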

Ba/F3 cells KRAS G12C = experiment: Ba/F3 proliferation assay (KRAS G12C); assay type: cell-based; conditions: AlamarBlue viability
How it was run: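 Ba/F3 cells retrovirally transduced with KRAS G12 mutant, puromycin-selected, grown IL-3-independent; seeded in RPMI-1640 + 10% FCS without IL-3. Logarithmic compound dose series in duplicate, 72 h at 37° C., AlamarBlue fluorescence as % of DMSO control; IC50 from four-parameter non-linear regression.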

SK-CO-1 cells = experiment: SK-CO-1 CTG proliferation assay (120 h) (CRC, G12V); assay type: cell-based
How it was run: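 Cells seeded overnight in EMEM with 10% FCS, then given logarithmic dose series in duplicate for 120 h at 37° C. CellTiter-Glo luminescence expressed as percent of DMSO controls, with a T0 read at dosing; IC50 by four-parameter non-linear regression.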

[1] = Metabolic (microsomal) stability assay, human liver microsomes (HLM); assay type: in vitro ADME; conditions: 1 μM test compound, predicted clearance as percent of liver blood flow

Row | Compound | IC50 (LOVO cells; Homo sapiens) | IC50 (Ba/F3 cells KRAS G12C; Mus musculus, BaF3, 72 h) | IC50 (SK-CO-1 cells; Homo sapiens) | HLM QH [1] | IC50 (LOVO cells) | IC50 (Ba/F3 cells KRAS G12C; 72 h) | IC50 (SK-CO-1 cells)
1 | C[C@H](Oc1nc(-c2noc3c2CCC[C@@]32CCCc3sc(N)c(C#N)c32)nc2c1n(C)c(=O)n2[C@H]1CO[C@@H](C)C1)[C@@H]1CCCN1C [II-5] | 3 nM | 1 nM | 1 nM | 36% | – | – | –
2 | CO[C@@H]1C[C@@H]([C@H](C)Oc2nc(-c3noc4c3CCC[C@@]43CCCc4sc(N)c(C#N)c43)nc3c2n(C)c(=O)n3[C@@]23COC[C@@H]2C3)N(C)C1 [II-6] | 11 nM | 2 nM | 2 nM | 52% | – | – | –
3 | C[C@H](Oc1nc(-c2noc3c2CCC[C@@]32CCCc3sc(N)c(C#N)c32)nc2c1CN(c1ncccn1)[C@]21CCOC1)[C@@H]1CCCN1C [II-7a] | 11 nM | 10 nM | 32 nM | <24% | – | – | –
4 | C[C@H](Oc1nc(-c2noc3c2CCC[C@@]32CCCc3sc(N)c(C#N)c32)nc2c1CN(c1ncccn1)[C@@]21CCOC1)[C@@H]1CCCN1C [II-7b] | 130 nM | 61 nM | 154 nM | <24% | – | – | –
5 | C[C@H](Oc1nc(-c2noc3c2CCC[C@@]32CCCc3sc(N)c(C#N)c32)nc2c1CCO[C@]21CCOC1)[C@@H]1CCCN1C [II-9b] | 12 nM | 5 nM | 9 nM | 33% | – | – | –
6 | C[C@H](Oc1nc(-c2noc3c2CCC[C@@]32CCCc3sc(N)c(C#N)c32)nc2c1CCCO[C@]21CCOC1)[C@@H]1CCCN1C [II-10] | 11 nM | 7 nM | 4 nM | 47% | – | – | –
7 | CO[C@H]1CCN(C)[C@@H]1[C@H](C)Oc1nc(-c2noc3c2CCC[C@@]32CCCc3sc(N)c(C#N)c32)nc2c1CN(C1COC1)C[C@]21CCOC1 [II-13] | 8 nM | 2 nM | 3 nM | 66% | – | – | –
8 | CO[C@@H]1C[C@@H]([C@H](C)Oc2nc(-c3noc4c3CCC[C@@]43CCCc4sc(N)c(C#N)c43)nc3c2CN(C2COC2)C[C@]32CCOC2)N(C)C1 [II-14] | 18 nM | 3 nM | 6 nM | 59% | – | – | –
9 | C[C@H](Oc1nc(-c2noc3c2CCC[C@@]32CCCc3sc(N)c(C#N)c32)nc2c1CC[C@]21CNCCO1)[C@@H]1C[C@@H](F)CN1C [II-20] | – | – | – | 36% | 253 nM | 181 nM | 148 nM

Continued, in another order:

Row | IC50 (LOVO cells; Homo sapiens) | IC50 (Ba/F3 cells KRAS G12C; Mus musculus, BaF3, 72 h) | IC50 (SK-CO-1 cells; Homo sapiens) | HLM QH [1] | Compound | IC50 (LOVO cells) | IC50 (Ba/F3 cells KRAS G12C; 72 h) | IC50 (SK-CO-1 cells)
10 | 2 nM | 2 nM | 1 nM | 46% | C[C@H](Oc1nc(-c2noc3c2CCC[C@@]32CCCc3sc(N)c(C#N)c32)nc2c1COC[C@]21CCOC1)[C@@H]1CCCN1C [II-8] | – | – | –
11 | 274 nM | 84 nM | 101 nM | 29% | C[C@H](Oc1nc(-c2noc3c2CCC[C@@]32CCCc3sc(N)c(C#N)c32)nc2c1COC[C@@]21CCOC1)[C@@H]1CCCN1C [II-9a] | – | – | –
12 | 6 nM | 1 nM | 4 nM | 64% | CO[C@@H]1C[C@@H]([C@H](C)Oc2nc(-c3noc4c3CCC[C@@]43CCCc4sc(N)c(C#N)c43)nc3c2COC[C@]32CCOC2)N(C)C1 [II-11] | – | – | –
13 | 71 nM | 2 nM | 5 nM | 26% | C[C@H](Oc1nc(-c2noc3c2CCC[C@@]32CCCc3sc(N)c(C#N)c32)nc2c1CN(C1COC1)C[C@]21CCOC1)[C@@H]1CCCN1C [II-12] | – | – | –
14 | 17 nM | 1 nM | 5 nM | 63% | C[C@H](Oc1nc(-c2noc3c2CCC[C@@]32CCCc3sc(N)c(C#N)c32)nc2c1CNC[C@]21CCOC1)[C@@H]1CCCN1C [II-15] | – | – | –
15 | 7 nM | 1 nM | 2 nM | 64% | C[C@H](Oc1nc(-c2noc3c2CCC[C@@]32SCCc3sc(N)c(C#N)c32)nc2c1COC[C@]21CCOC1)[C@@H]1CCCN1C [II-16] | – | – | –
16 | 141 nM | 31 nM | 79 nM | 36% | C[C@H](Oc1nc(-c2noc3c2CCC[C@@]32CCCc3sc(N)c(C#N)c32)nc2c1CCC21CCOC1)[C@@H]1CCCN1C (stereo partly shown) [II-18] | – | – | –
